Assay results: patent US20110294897A1, “Treating Xerophthalmia With Compounds Increasing Meibomian Gland Secretion” (Bridge Pharma, Inc., priority 2009, published 2011)
One block for each molecule: values may come before it.

Key:
intraocular pressure [1] = test: intraocular pressure in rabbits with glucose-elevated IOP; format: in vivo, rabbit; settings: 10 μL instilled, 12-15 minutes after dosing
Method: Intraocular pressure (IOP) was increased in conscious rabbits by intravenous injections of glucose. The test compound was administered by instillation into the conjunctival sac immediately after the glucose injection and all measurements were made approximately 12-15 minutes after dosing. […] Thus, 10 μL of solutions containing 3.5 or 7.0 or 14.0 mg/ml in Tears Naturale® were instilled into the conjunctival sac. Tears Naturale® was used as control solution. TOP was measured using a manometrically calibrated BIO-RAD Digilab pneumatonometer. Tetracaine (10 μl, 0.5%) was applied to the cornea before the IOP measurements. N=7 Dutch Belted rabbits/group (2-4 kg; M and F).

patients = settings: according to the manufacturer; cited from earlier work
[2] = tested on: Meibomian gland secretion; test: Meibomian gland secretion in vivo (Meibometer), other agonists
Method: Meibomian gland secretion was measured with a Meibometer (Courage-Khazaka Electronic GmbH, 50829 Cologne) and was increased in vivo as described in Examples 6 and 7, hereinafter.

intraocular pressure [3] = test: normal intraocular pressure in Dutch-Belted rabbits; format: in vivo, rabbit; settings: 4.1% in saline, twice daily for 5 days
Method: Intraocular pressure was measured twice daily using the methodology stated above.

[4] = tested on: eyes of New Zealand White rabbits; test: ocular irritation, Draize scoring in New Zealand White rabbits
Method: As a vehicle control 0.1 ml of 0.9% sodium chloride for injection (B. Braun; Lot No. J9A692) was instilled in the conjunctival sac of the left eye of all the rabbits. […] Draize scoring was assessed 30 minutes, 4 hours and 24 hours after the instillations of the placebo control (saline) and the test article solutions.
The grades of ocular reaction (conjunctivae, cornea, and iris) were determined at each examination.

solubility in water = format: physicochemical
human β3 receptors = target: T1, human β3 receptors (Homo sapiens, UniProt P13945); test: human β3 adrenergic receptor binding, [125I]CYP
T1 construct: expressed in transfected cells; host or cells: SK-N-MC cells
Text: The specific ligand binding to the receptors is defined as the difference between the total binding and the nonspecific binding determined in the presence of an excess of unlabelled ligand.

[5] = tested on: Meibomian gland secretion; test: Meibomian gland secretion (Meibometer) after intravenous infusion in conscious beagle dogs; format: in vivo, dog; settings: for Meibomian gland secretion: pre-infusion 248±9 MU
Method: . A Meibometer (MB550, Courage-Khazaka GmbH, Koln, Germany) was used to measure the delivery rate of lipids from the Meibomian glands. The measurements were performed in conscious beagle dogs. To reduce variability all studies were performed by a single individual, who had obtained extensive training with the instrumentation and was used to the handling of conscious laboratory dogs. The methodology has been described by Benz, P., et al. 2008, which publication is hereby included by reference, although new and improved computer software was used in the present studies.

lacrimal gland secretion = test: lacrimal secretion (Schirmer) after intravenous administration in conscious rabbits; format: in vivo, rabbit
Method: In short, Schirmer strips are strips of filter papers, which are in part inserted into the conjunctival sac and in part hanging out from the conjunctival sac. The Schirmer strips absorb the watery tear fluid as can be observed as wetting of the strips. The length of the wetted area is measured and is an indicator of the amount of available tear fluid in the conjunctival sac. […] The average pre-dose value (from three Schirmer readings in each animal) was compared with the average of four readings during the infusions of R-salbutamol.

[6] = tested on: Meibomian gland secretion; test: Meibomian lipid secretion (Meibometer) after ocular instillation in conscious beagle dogs; format: in vivo, dog; settings: Day 3, 4.0 percent in saline, single eye drops three times daily; vehicle 174 MU
Method: A Meibometer was used to measure the delivery rate of lipids from the Meibomian glands. The measurements were performed in conscious beagle dogs and the test methodology is described above (Example 6). In these experiments, Meibomian secretion was measured in saline vehicle-treated dogs and in groups of dogs that were treated with a test article, daily at about 9 AM, 11 AM and 1 PM with single eye drops. […] Both eyes were treated and a total of six dogs were used for each treatment group.

intraocular pressure [7] = test: night-time intraocular pressure in Dutch-Belted rabbits; format: in vivo, rabbit; settings: for increase of IOP: night-time IOP, ocular instillation
Method: Intraocular pressure (IOP) in rabbits is considerably higher during the night than during the day. The present experiments were conducted in Dutch-Belted rabbits in which IOP was higher during daytime as a consequence of switching the night/day cycle by exposing the animals to 12 hours of light during the night and 12 hours of darkness during daytime. […]

T1 sequence (P13945 whole entry): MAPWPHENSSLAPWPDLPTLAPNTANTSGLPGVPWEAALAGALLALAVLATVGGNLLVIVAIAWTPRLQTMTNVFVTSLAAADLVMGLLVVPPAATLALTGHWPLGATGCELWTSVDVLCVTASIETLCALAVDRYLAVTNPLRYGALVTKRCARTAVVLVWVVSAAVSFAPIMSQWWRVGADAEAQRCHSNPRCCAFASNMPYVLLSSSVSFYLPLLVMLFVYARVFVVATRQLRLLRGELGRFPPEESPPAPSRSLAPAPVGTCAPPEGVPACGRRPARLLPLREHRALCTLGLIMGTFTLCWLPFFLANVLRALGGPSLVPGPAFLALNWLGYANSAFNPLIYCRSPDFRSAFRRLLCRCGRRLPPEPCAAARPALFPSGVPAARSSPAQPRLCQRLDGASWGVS

- intraocular pressure lowered (vs control animals), mean±SEM (intraocular pressure [1]; 3.5 mg/ml): 4.7±1.3 mmHg
- intraocular pressure lowered (vs control animals), mean±SEM (intraocular pressure [1]; 7.0 mg/ml): 4.6±1.0 mmHg
- intraocular pressure lowered (vs control animals), mean±SEM (intraocular pressure [1]; 14.0 mg/ml): 4.7±1.3 mmHg
Compound: CC(C)(C)NC[C@H](O)COc1nsnc1N1CCOCC1 [timolol]

Compound: CNC[C@H](O)c1ccc(O)c(O)c1 [epinephrine]
- patients with epinephrine intolerance (patients): 55%

Compound: CC(C)(C)NC[C@@H](O)c1ccc(O)c(CO)c1 [S-salbutamol]
- Meibomian gland secretion in vivo [2]: may also increase Meibomian gland secretion

- increase in IOP (intraocular pressure [3]): No increase in IOP was observed
- concentration dissolved in water (solubility in water): in excess of five percent by weight
- solubility in water (solubility in water): readily soluble in water
- intraocular pressure lowered (vs control animals), mean±SEM (intraocular pressure [1]; 3.5 mg/ml): 5.5±1.3 mmHg
- intraocular pressure lowered (vs control animals), mean±SEM (intraocular pressure [1]; 7.0 mg/ml): 6.7±1.5 mmHg
- intraocular pressure lowered (vs control animals), mean±SEM (intraocular pressure [1]; 14.0 mg/ml): 5.8±1.3 mmHg
- affinity for beta-3 receptors (human β3 receptors): practically no affinity
- Δ mmHg, nighttime intraocular pressure (intraocular pressure [7]; R-Hi 1.0%): −11 mmHg
- Δ mmHg, nighttime intraocular pressure (intraocular pressure [7]; R-Hi 1.0%, 1 PM): −10 mmHg
- Δ mmHg, nighttime intraocular pressure (intraocular pressure [7]; R-Hi 1.0%, 3 PM): −3 mmHg
- Δ mmHg, nighttime intraocular pressure (intraocular pressure [7]; R-Hi 1.0%, 5 PM): −2 mmHg
- Δ mmHg, nighttime intraocular pressure (intraocular pressure [7]; R-Hi 1.0%, 9:00 (instillation)): 0 mmHg
- Δ mmHg, nighttime intraocular pressure (intraocular pressure [7]; R-Hi 1.0%, 9:30): −7 mmHg
- Δ mmHg, nighttime intraocular pressure (intraocular pressure [7]; R-Hi 1.0%, 10 AM): −8 mmHg
- Δ mmHg, nighttime intraocular pressure (intraocular pressure [7]; R-Lo 0.33%, 1 PM): −4 mmHg
- Δ mmHg, nighttime intraocular pressure (intraocular pressure [7]; R-Lo 0.33%, 3 PM): −3 mmHg
- Δ mmHg, nighttime intraocular pressure (intraocular pressure [7]; R-Lo 0.33%, 5 PM): −2.5 mmHg
- Δ mmHg, nighttime intraocular pressure (intraocular pressure [7]; R-Lo 0.33%, 9:00 (instillation)): 0 mmHg
- Δ mmHg, nighttime intraocular pressure (intraocular pressure [7]; R-Lo 0.33%, 9:30): −7 mmHg
- Δ mmHg, nighttime intraocular pressure (intraocular pressure [7]; R-Lo 0.33%, 10 AM): −9 mmHg
- Δ mmHg, nighttime intraocular pressure (intraocular pressure [7]; R-Lo 0.33%, 11 AM): −9 mmHg
Compound: CC(C)(C)NC[C@H](O)c1ccc(O)c(CO)c1 [R-salbutamol, R(−)-isomer of a′[(tert-butylamino)methyl]-4-hydroxy-m-xylene-a,a′-diol]
- Mean Post-Instillation Irritation Score ([4]; 0.1% in saline, 4 Hours): 0
- Mean Post-Instillation Irritation Score ([4]; 0.1% in saline, 24 Hours): 0
- Mean Post-Instillation Irritation Score ([4]; 0.1% in saline, 30 Minutes): 0
- Mean Post-Instillation Irritation Score ([4]; 0.5% in saline, 4 Hours): 0
- Mean Post-Instillation Irritation Score ([4]; 0.5% in saline, 24 Hours): 0
- Mean Post-Instillation Irritation Score ([4]; 0.5% in saline, 30 Minutes): 0
- Mean Post-Instillation Irritation Score ([4]; 5.0% in saline, 4 Hours): 0
- Mean Post-Instillation Irritation Score ([4]; 5.0% in saline, 24 Hours): 0
- Mean Post-Instillation Irritation Score ([4]; 5.0% in saline, 30 Minutes): 0
- ocular irritancy ([4]; single-dose, in saline, concentrations up to 5%): not irritants
- Meibomian gland secretion ([5]; during twenty-minute iv infusion 30 μg/kg/min): 235±23 MU
- difference between pre-infusion and post-infusion secretion ([5]; iv 30 μg/kg/min for 20 min): approximately 27%
- Meibomian gland secretion ([5]; ten minutes post-infusion): 316±26 MU
- wetting of the Schirmer strips (lacrimal gland secretion; during iv infusion 30 μg/kg/min for 20 min, predose 20.3±1.6, six eyes): 33.8±2.3 millimeter
- increased wetting of the Schirmer strips (lacrimal gland secretion; iv 30 μg/kg/min, versus predose): approximately 66%
- Meibomian secretion, mean [6]: 304 MU
- increase of IOP (intraocular pressure [7]): Neither racemic nor isomeric salbutamol increased IOP

Compound: CNCC(O)c1ccc(OC(=O)C(C)(C)C)c(OC(=O)C(C)(C)C)c1 (centres unmarked) [dipivefrin]
- patients with epinephrine intolerance (patients): 3%

- solubility in water (solubility in water): readily soluble in water
- affinity for beta-3 receptors (human β3 receptors): practically no affinity
- Δ mmHg, nighttime intraocular pressure (intraocular pressure [7]; RS-Hi 2.0%, 1 PM): −7 mmHg
- Δ mmHg, nighttime intraocular pressure (intraocular pressure [7]; RS-Hi 2.0%, 3 PM): −4 mmHg
- Δ mmHg, nighttime intraocular pressure (intraocular pressure [7]; RS-Hi 2.0%, 5 PM): −0 mmHg
- Δ mmHg, nighttime intraocular pressure (intraocular pressure [7]; RS-Hi 2.0%, 9:00 (instillation)): 0 mmHg
- Δ mmHg, nighttime intraocular pressure (intraocular pressure [7]; RS-Hi 2.0%, 9:30): −9 mmHg
- Δ mmHg, nighttime intraocular pressure (intraocular pressure [7]; RS-Hi 2.0%, 10 AM): −9 mmHg
- Δ mmHg, nighttime intraocular pressure (intraocular pressure [7]; RS-Hi 2.0%, 11 AM): −9 mmHg
- Δ mmHg, nighttime intraocular pressure (intraocular pressure [7]; RS-Lo 0.67%, 1 PM): −5 mmHg
- Δ mmHg, nighttime intraocular pressure (intraocular pressure [7]; RS-Lo 0.67%, 3 PM): −2 mmHg
- Δ mmHg, nighttime intraocular pressure (intraocular pressure [7]; RS-Lo 0.67%, 5 PM): −0.5 mmHg
- Δ mmHg, nighttime intraocular pressure (intraocular pressure [7]; RS-Lo 0.67%, 9:00 (instillation)): 0 mmHg
- Δ mmHg, nighttime intraocular pressure (intraocular pressure [7]; RS-Lo 0.67%, 9:30): −6 mmHg
- Δ mmHg, nighttime intraocular pressure (intraocular pressure [7]; RS-Lo 0.67%, 10 AM): −6 mmHg
- Δ mmHg, nighttime intraocular pressure (intraocular pressure [7]; RS-Lo 0.67%, 11 AM): −6 mmHg
Compound: CC(C)(C)NCC(O)c1ccc(O)c(CO)c1 (racemic) [salbutamol, a′[(tert-butylamino)methyl]-4-hydroxy-m-xylene-a,a′-diol]
- increase of IOP (intraocular pressure [7]): Neither racemic nor isomeric salbutamol increased IOP

Compound: CC(CCc1ccc(O)cc1)NCC(O)c1ccc(O)cc1 (racemic) [RR/SR ractopamine, ractopamine]
- Meibomian gland secretion in vivo [2]: ability to increase Meibomian gland secretion in vivo
